In ChEMBL document CHEMBL1158151, “Cactus Alkaloids. XXXIX. A Glucotetrahydroiosquinoline From the Mexican Cactus, Pterocereus gaumeri” (1979) one finds EC50 data, which are given here for two compounds.

Each structure is given as a SMILES string. Converted amounts (≈) assume the structure as drawn.

The assay is described as follows: Cytotoxicity against human 9KB cells. It is filed as functional. To be noted: read-out: ED50 (the source's name).

In the case of `COc1cc2c(c(O)c1OC)CCN(C)C2CO` (configuration not stated) [DEGLUCOPTEROCEREINE], the EC50 worked out at 16 µg/mL (≈ 63.2 µM).

Regarding `COc1cc2c(c(O[C@@H]3O[C@H](CO)[C@@H](O)[C@H](O)[C@H]3O)c1OC)CCN(C)C2CO` (some centres not stated) [PTEROCEREINE], the EC50 was greater than 100 µg/mL.
